Drawing on a melting point compilation (Tetko et al.; mined from patent text by program, amines drawn as free bases though some values may be those of a salt), this text covers melting point for 88 compounds.

As to `Cc1cccc(-n2c(-c3sc(Nc4ccccc4)nc3-c3ccccc3)nc3ccccc3c2=O)c1`, the melting point (in general, the temperature, or range, at which the solid turns liquid) is 105 to 107 °C.
`Cc1cc2c(-c3ccccc3Cl)c(NC(=O)Nc3ccc(F)cc3F)c(=O)n(C)c2cc1C` yielded a melting point of 242 to 244 °C.
`Cc1cnc2c3c(nccc13)C(=O)c1ccccc1-2` displayed a melting point of 208 to 210 °C.
As for `COc1ccc(N2CCN(C(=O)NCCN(C)C)CC2)cc1`, the melting point lay within 79 to 82 °C.
The value for `COc1ccc(-c2[nH]c(C(N)(C(F)(F)F)C(F)(F)F)nc2-c2ccc(F)cc2)cc1` was 123 to 124 °C.
The value for `CN1CCN(c2cccc3c2C[C@H](NC(=O)c2ccc(N4CCSCC4)cc2)CC3)CC1` was 190 to 191 °C.
The value for `CC(C)(CCC(F)(F)C(F)(F)C(F)(F)C(F)(F)C(F)(F)C(F)(F)C(F)(F)C(F)(F)F)OC(=O)N1CCC(C(=O)O)CC1` was 140 to 142 °C; that for `Clc1ccc(-c2nc(Cl)nc(Cl)n2)c(Cl)c1` was 118 °C; that for `O=c1c(Cc2ccccn2)cc2cccnc2n1-c1cccc([N+](=O)[O-])c1` was 229 to 231 °C.
As to `CN(C)C(N)=C(C#N)C(N)=S`, the melting point fell in the range of 186 to 187 °C.
The value for `O=C(NCc1ccc(F)cc1)Nc1ccc(CN2C(=O)[C@H]3CCC[C@H]3N(C(=O)CCl)c3ccccc32)cc1` (relative stereo) was 202 to 203 °C; that for `CCCCCCc1ccc(O)c(C(=O)O)c1` was 83 to 84 °C.
For the compound `CC(C)(C)c1ccc(NC(=O)Nc2ccc(Oc3cc(Cl)ncn3)cc2)cc1`, the melting point lay in the range of 111 to 112 °C.
The value for `c1ccc2cc(CCNc3ncnc4ccccc34)ccc2c1` was 172 to 174 °C; that for `CCn1cc(C(=O)O)c(=O)c2cc(F)c(O)cc21` was above 250 °C.
The value for `CC(=NOCc1ccccc1Nc1c(Cl)ccc(C)c1Cl)C(=O)O` was 166 to 171 °C; that for `Cc1cc(COC2=NS(=O)(=O)c3ccccc32)sn1` was 202 to 204 °C.
The value for `FC(F)(Br)C(F)(F)Oc1ccc(C2(c3ccc(OC(F)(F)C(F)(F)Br)cc3)c3ccccc3-c3ccccc32)cc1` was 157 to 158 °C; that for `Cc1ccc2c(c1)[nH]c(=O)n2CCCN1CCC2(CC1)C(=O)NCN2c1ccccc1` was 256 °C; that for `Nc1cccc(-c2ccc3nnn(Cc4ccc5ncccc5c4)c3n2)c1` was 187 to 189 °C.
`CCCCCS(=O)(=O)NC(=O)/C(C)=C/c1ccc(OCCOC)cc1Oc1ncc(Cl)cc1Cl` displayed a melting point of 97 to 98 °C.
For the compound `O=[N+]([O-])c1cc(CBr)n(CCBr)n1`, the melting point lay in the range of 95 to 97 °C.
With `Cc1ccccc1C(=O)Nc1ccc(C(=O)N2Cc3cc(Cl)ccc3Oc3ccccc32)cc1`, the melting point fell in the range of 207 to 208 °C.
The value for `CN(C)C1CCN(c2cc3ccccc3c(=O)[nH]2)C1` (stereo not drawn) was 233 to 234 °C; that for `COCCN(C)c1nnc(-c2ccc(-c3ccccc3)nc2)n1-c1ccccc1C#N` was 148 to 149 °C.
The value for `COc1ccc2c3c1OC1CCCC4(O)C(C2)N(C(=O)C2CCC2)CCC314` (stereo not drawn) was 140 °C; that for `CCOC(=O)c1c(-c2ccccc2)c2cc(Cl)ccc2n1CC#N` was 119 to 120 °C; that for `CC1Cc2ccc(Br)cc2C(c2ccc([N+](=O)[O-])cc2)=NN1` (stereo not drawn) was 125 to 130 °C.
The value for `COc1c(Cl)ccc(C(=O)O)c1F` was 183 to 184 °C.
In the case of `O=C(CC(CSC(=O)c1ccccc1)C(=O)O)c1ccc(Br)cc1` (stereo not drawn), the melting point fell in the range of 133 to 135 °C.
The value for `O=c1[nH]c2cc(Cl)c([N+](=O)[O-])cc2n(C2CCCCC2)c1=O` was above 300 °C; that for `O=C(CNC(=O)OCc1ccccc1)ON1C(=O)CCC1=O` was 110 to 112 °C.
`CCCCCCC(=O)NNC(=O)OC` displayed a melting point of 74 to 75 °C.
The compound `C=C(C)C(=O)Oc1ccc(S(=O)(=O)NCCCC)cc1` yielded a melting point of 59 to 60 °C.
For `CC(C)(CCCCOc1cc(-c2ccccc2)cc(-c2ccccc2)n1)c1nnn[nH]1`, the melting point is 160 to 162 °C.
The value for `COc1ccc(S(=O)O)c(OC)c1` was 89 to 91 °C; that for `C1=Cc2cccnc2Nc2ncccc21` was 126 to 129 °C; that for `N#Cc1cc2ccccc2[nH]1` was 94 to 95 °C.
The value for `Nc1cccc(-c2ccc(CCN3Cc4ccccc4C3)cc2)n1` was 140 to 143 °C.
The value for `Cc1[nH]c2ccccc2c1[C@H]1CC[C@@H](N2CCN(c3cccc4[nH]ccc34)CC2)CC1` was 279 to 280 °C.
As for `CC(=O)c1cn(S(=O)(=O)c2ccccc2)c2nccc(OCC3CCCCC3)c12`, the melting point lay in the range of 138 to 140 °C.
Compound `CCOC(=O)c1c(Cn2cncn2)nc2sc3c(c2c1-c1cccc(OC)c1OC)CCCN3C(=O)OCc1ccccc1` gave a melting point of 184 to 185 °C.
Take `CCC(=O)C1=C(O)CC(c2ccc3sccc3c2)CC1=O` (stereo not drawn): the melting point came to 134 °C.
The value for `CC(C)(C)c1ccc(/C=N/OCCCOc2ccc(C(=O)O)c(NC(=O)c3ccc(C(C)(C)C)cc3)c2)cc1` was 192 to 194 °C; that for `NS(=O)(=O)c1nc(-c2ccc([N+](=O)[O-])cc2)c[nH]1` was 227 to 229 °C.
Compound `CN1C2CCCC1CC(NC(=O)c1cc(Cl)cc3nc(-c4ccccc4)oc13)C2` (stereo not drawn) displayed a melting point of 199 to 201 °C.
The value for `CC(=O)c1noc2cc(OCc3cccc(C(F)(F)F)c3)ccc12` was 130 to 132 °C; that for `Cc1ccc(C)c(-c2sc(NC(=O)[C@@H]3CC4CCC3CC4)c(C#N)c2Cl)c1` was 208 to 210 °C; that for `COc1ccc2ccc3c(c2c1)C=C(C#N)CO3` was 134 °C.
The value for `CCOCc1nc2c(N)nc3ccccc3c2n1CC1(OCCS(C)(=O)=O)CCCCC1` was 159 to 161 °C; that for `O=C(O)c1cn(CCF)c2nc(N3CCNCC3)c(F)cc2c1=O` was 223 to 225 °C; that for `CC(C)[C@@H](NS(=O)(=O)c1ccc2ccccc2c1)C(=O)O` was 170 to 172 °C.
The compound `Nc1cc(NCCC2CCCCC2)nc2c1ncn2C1OC(CO)C(O)C1O` (stereo not drawn) returned a melting point of 194 to 195 °C.
`COc1ccc2c(c1)C(=O)OC2=O` gave a melting point of 89 to 94 °C.
As for `CC(=O)Oc1ccc(Oc2ccc(NC(=O)Nc3cc(C(C)(C)C)on3)cc2)cc1`, the melting point is 146 °C.
`Cn1nc(N)c2sc3ccccc3c21` registered a melting point of 177 to 178 °C.
The value for `O=C(O)Cc1cc(C(=O)c2ccc(I)c([N+](=O)[O-])c2)sc1-c1ccccc1` was 100 to 103 °C; that for `CCc1[nH]n(C2CCCC2)c2nc(-c3cccc(OC4CCCCN(C)C4)c3)nc(=O)c1-2` (stereo not drawn) was 195 to 196 °C; that for `COC(=O)C1=C(C)NC(CC(=O)N2CCN(C3Cc4ccccc4C3)CC2)=C(C(=O)OC)C1c1c(Cl)cccc1Cl` (stereo not drawn) was 190 to 200 °C.
The compound `CC(C)(Cc1cc([N+](=O)[O-])c(F)cc1Cl)C(=O)O` returned a melting point of 102 to 104 °C.
With `CC1(C(=O)Nc2ccc(OCc3ccccc3)c(C(F)(F)F)c2)CC1`, the melting point was 120 to 122 °C.
The value for `CCOC(=O)N1CC=C(c2cc(F)c(Br)cc2F)CC1` was 40 to 44 °C; that for `CCCCc1nc2c(N)nc3ccccc3c2n1CCCNC(=O)NC1CCCCC1` was 200 to 201 °C.
The value for `CCOC(=O)c1nocc1O` was 59 to 60 °C; that for `C=CCOc1ccc(Cl)cc1NC(=O)Cc1ccc(OC)c(OC2CCCC2)c1` was 75 to 76.5 °C; that for `CC1=C(/C=C/S(=O)(=O)NC(C)C)C(c2cccc([N+](=O)[O-])c2)C(C(=O)OCC(F)(F)F)=C(C)N1` (stereo not drawn) was 180 to 182 °C.
The value for `CCOC(=O)c1cn(C)c2sc(CN3CCOCC3)c(C)c2c1=O` was 172 to 173 °C; that for `CCOC(=O)c1nn(-c2ccccc2Br)c(=O)c(C#N)c1C` was 106 to 108 °C; that for `O=C1Nc2cccc(I)c2/C1=C/c1ccc[nH]1` was 256 to 258 °C.
Compound `CC(C)(C)NCC(O)c1ccc(N)c(C#N)c1F` (stereo not drawn) showed a melting point of 150 to 151 °C.
On to `COc1ccccc1COc1ccc(S(=O)(=O)c2ccc(C)nc2Nc2c(C)cc(C)cc2C)cc1`, for which the melting point lay within 148 to 150 °C.
The value for `NC(=O)C1CCN(C(=O)CNC(=O)OCc2ccccc2)CC1` was 146 to 149 °C.
The value for `Cc1c(C)c2c(c(C)c1N)CC(C)(CN1CCCCC1)O2` (stereo not drawn) was 60 to 61 °C.
In the case of `CCCCCc1n[nH]c(CCCCC)n1`, the melting point was 66 to 68 °C.
`COc1ccc(-c2nc(C(=O)c3ccc(F)cc3)c[nH]2)cc1` gave a melting point of 245 to 247 °C.
Take `CCCc1c(OCCCOc2ccc(C(=O)OCCCN(C)C)cc2Br)ccc(C(C)=O)c1O`: the melting point was in the range of 71 to 72 °C.
Consider `COc1cc2c3c(n(C)c(=O)c2cc1OC)-c1cc2c(cc1C3=CCCCCCBr)OCO2`, for which the melting point is 182 to 185 °C.
The value for `CSc1ccc(C(=O)Nc2cccnc2C(=O)Nc2ccc(Cl)cn2)c(OC2CCNCC2)c1` was 157 to 158 °C; that for `O=C(O)CSc1nccc(-n2cc(C3c4ccccc4C=Cc4ccccc43)c(=S)[nH]c2=O)n1` was 190 °C.
The value for `COc1ccc(N2C(=O)C(=C3CCCN3C)c3ccccc32)cc1` was 90 to 93 °C.
As for `NS(=O)(=O)c1cc2[nH]c(Cc3ccccc3Cl)nc2cc1Cl`, the melting point fell in the range of 223 to 226 °C.
The value for `NC(=O)N(O)CCNC(=O)c1cccc(Oc2ccc(Cl)c(Cl)c2)c1` was 153 to 156 °C; that for `CCc1cc(C=Cc2nc3ccccc3o2)c(=O)[nH]c1C` was 262 to 264 °C; that for `O=C(NC1CN2CCC1CC2)c1cccc2oc(-c3ccccc3)nc12` (stereo not drawn) was 77 to 80 °C.
The value for `CCOC(=O)C1=C(COCc2nnc(CN(C)C)s2)NC(C)=C(C(=O)OC)C1c1cccc(Cl)c1Cl` (stereo not drawn) was 168 to 170 °C; that for `CCOCc1cc(N)ccc1N1C(=O)c2ccc(Cl)cc2C1=O` was 154 to 156 °C; that for `CN1CCC(OC2c3ccccc3CCn3c2nc(-c2ccccc2)c3C(=O)O)CC1` (stereo not drawn) was 185 °C.
The value for `CCCCSC(=S)N1Cc2[nH]c3ccccc3c2CC1CO` (stereo not drawn) was 60 to 63 °C.
